Reference: ChEMBL document CHEMBL2375211, “2-methoxyjuglone induces apoptosis in HepG2 human hepatocellular carcinoma cells and exhibits in vivo antitumor activity in a H22 mouse hepatocellular carcinoma model” (J Nat Prod, 2013)
Calls of active or inactive are those of the source. No cut-off for these calls is given here.

Experiments:
H22 [1] = assay: Antitumor activity against mouse H22 cells allografted in Kunming mouse assessed as decrease in tumor size at 0.5 to 1 mg/kg/day, ip administered 8 days measured after 10 days; assay type: functional, organism-based
Mus musculus = assay: Toxicity in Kunming mouse allografted with mouse H22 cells assessed as decrease in body weight at 0.25 to 1 mg/kg/day, ip measured every day for 8 days; assay type: organism-based; design: route intraperitoneal; conditions: in vivo, 192 h
H22 [2] = assay: Antitumor activity against mouse H22 cells allografted in Kunming mouse assessed as decrease in weight of tumor mass at 1 mg/kg/day, ip administered 8 days measured after 10 days relative to control; assay type: functional; design: scale not given: the % may be the effect or the level left; conditions: route intraperitoneal
H22 [3] = assay: Antitumor activity against mouse H22 cells allografted in Kunming mouse assessed as decrease in weight of tumor mass at 0.5 mg/kg/day, ip administered 8 days measured after 10 days relative to control; assay type: functional; design: scale not given: the % may be the effect or the level left; conditions: route intraperitoneal
HepG2 [4] = assay: Induction of apoptosis in human HepG2 cells assessed as decrease in Bcl-2 level at 1.6 to 4.8 ug/mL after 24 hrs by Western blot analysis; assay type: functional, cell-based
HepG2 [5] = assay: Induction of apoptosis in human HepG2 cells assessed as increase in Bax level after 24 hrs by Western blot analysis; assay type: functional, cell-based
HepG2 [6] = assay: Induction of apoptosis in human HepG2 cells assessed as PARP cleavage at 1.6 to 4.8 ug/mL after 24 hrs by Western blot analysis; assay type: functional, cell-based
HepG2 [7] = assay: Induction of apoptosis in human HepG2 cells assessed as mitochondrial cytochrome c-dependent caspase-3 activation at 1.6 to 4.8 ug/mL after 24 hrs by Western blot analysis; assay type: functional, cell-based
HepG2 [8] = assay: Induction of apoptosis in human HepG2 cells assessed as mitochondrial cytochrome c-dependent caspase-9 activation at 1.6 to 4.8 ug/mL after 24 hrs by Western blot analysis; assay type: functional, cell-based
HepG2 [9] = assay: Induction of apoptosis in human HepG2 cells assessed as increase in mitochondrial cytochrome c release after 24 hrs by Western blot analysis; assay type: functional, cell-based
HepG2 [10] = assay: Induction of apoptosis in human HepG2 cells assessed as increase in early apoptotic cells after 24 hrs by annexin V-FITC/propidium iodide staining-based FACS flow cytometric analysis; assay type: functional, cell-based
HepG2 [11] = assay: Cell cycle arrest in human HepG2 cells assessed as accumulation at G2/M phase at 8 ug/mL after 48 hrs by propidium iodide staining-based flow cytometric analysis (reference value: 5%); assay type: functional
HepG2 [12] = assay: Cell cycle arrest in human HepG2 cells assessed as accumulation at S phase at 8 ug/mL after 48 hrs by propidium iodide staining-based flow cytometric analysis (reference value: 31%); assay type: functional
HepG2 [13] = assay: Cell cycle arrest in human HepG2 cells assessed as accumulation at G1 phase at 8 ug/mL after 48 hrs by propidium iodide staining-based flow cytometric analysis (reference value: 64%); assay type: functional
HepG2 [14] = assay: Cell cycle arrest in human HepG2 cells assessed as accumulation at sub-G1 phase at 8 ug/mL after 48 hrs by propidium iodide staining-based flow cytometric analysis (reference value: 3%); assay type: functional
HepG2 [15] = assay: Cell cycle arrest in human HepG2 cells assessed as accumulation at G2/M phase at 6.4 ug/mL after 48 hrs by propidium iodide staining-based flow cytometric analysis (reference value: 5%); assay type: functional
HepG2 [16] = assay: Cell cycle arrest in human HepG2 cells assessed as accumulation at S phase at 6.4 ug/mL after 48 hrs by propidium iodide staining-based flow cytometric analysis (reference value: 31%); assay type: functional
HepG2 [17] = assay: Cell cycle arrest in human HepG2 cells assessed as accumulation at G1 phase at 6.4 ug/mL after 48 hrs by propidium iodide staining-based flow cytometric analysis (reference value: 64%); assay type: functional
HepG2 [18] = assay: Cell cycle arrest in human HepG2 cells assessed as accumulation at sub-G1 phase at 6.4 ug/mL after 48 hrs by propidium iodide staining-based flow cytometric analysis (reference value: 3%); assay type: functional
HepG2 [19] = assay: Cell cycle arrest in human HepG2 cells assessed as accumulation at G2/M phase at 4.8 ug/mL after 48 hrs by propidium iodide staining-based flow cytometric analysis (reference value: 5%); assay type: functional
HepG2 [20] = assay: Cell cycle arrest in human HepG2 cells assessed as accumulation at S phase at 4.8 ug/mL after 48 hrs by propidium iodide staining-based flow cytometric analysis (reference value: 31%); assay type: functional
HepG2 [21] = assay: Cell cycle arrest in human HepG2 cells assessed as accumulation at G1 phase at 4.8 ug/mL after 48 hrs by propidium iodide staining-based flow cytometric analysis (reference value: 64%); assay type: functional
HepG2 [22] = assay: Cell cycle arrest in human HepG2 cells assessed as accumulation at sub-G1 phase at 4.8 ug/mL after 48 hrs by propidium iodide staining-based flow cytometric analysis (reference value: 3%); assay type: functional
HepG2 [23] = assay: Cell cycle arrest in human HepG2 cells assessed as accumulation at G2/M phase at 3.2 ug/mL after 48 hrs by propidium iodide staining-based flow cytometric analysis (reference value: 5%); assay type: functional
HepG2 [24] = assay: Cell cycle arrest in human HepG2 cells assessed as accumulation at S phase at 3.2 ug/mL after 48 hrs by propidium iodide staining-based flow cytometric analysis (reference value: 31%); assay type: functional
HepG2 [25] = assay: Cell cycle arrest in human HepG2 cells assessed as accumulation at G1 phase at 3.2 ug/mL after 48 hrs by propidium iodide staining-based flow cytometric analysis (reference value: 64%); assay type: functional
HepG2 [26] = assay: Cell cycle arrest in human HepG2 cells assessed as accumulation at sub-G1 phase at 3.2 ug/mL after 48 hrs by propidium iodide staining-based flow cytometric analysis (reference value: 3%); assay type: functional
HepG2 [27] = assay: Cell cycle arrest in human HepG2 cells assessed as accumulation at G2/M phase at 1.6 ug/mL after 48 hrs by propidium iodide staining-based flow cytometric analysis (reference value: 5%); assay type: functional
HepG2 [28] = assay: Cell cycle arrest in human HepG2 cells assessed as accumulation at S phase at 1.6 ug/mL after 48 hrs by propidium iodide staining-based flow cytometric analysis (reference value: 31%); assay type: functional
HepG2 [29] = assay: Cell cycle arrest in human HepG2 cells assessed as accumulation at G1 phase at 1.6 ug/mL after 48 hrs by propidium iodide staining-based flow cytometric analysis (reference value: 64%); assay type: functional

## COC1=CC(=O)c2c(O)cccc2C1=O
H22 [1]
  Activity: Active
Mus musculus
  Activity: Non-toxic
H22 [2]
  Activity: 67%
H22 [3]
  Activity: 56%
HepG2 [4]
  Activity: Active
HepG2 [5]
  Activity: Dose-dependent effect
HepG2 [6]
  Activity: Active
HepG2 [7]
  Activity: Active
HepG2 [8]
  Activity: Active
HepG2 [9]
  Activity: Dose-dependent effect
HepG2 [10]
  Activity: Dose-dependent effect
HepG2 [11]
  Activity: 0%
HepG2 [12]
  Activity: 46%
HepG2 [13]
  Activity: 54%
HepG2 [14]
  Activity: 33%
HepG2 [15]
  Activity: 2%
HepG2 [16]
  Activity: 52%
HepG2 [17]
  Activity: 46%
HepG2 [18]
  Activity: 18%
HepG2 [19]
  Activity: 2%
HepG2 [20]
  Activity: 66%
HepG2 [21]
  Activity: 32%
HepG2 [22]
  Activity: 6%
HepG2 [23]
  Activity: 1%
HepG2 [24]
  Activity: 64%
HepG2 [25]
  Activity: 35%
HepG2 [26]
  Activity: 4%
HepG2 [27]
  Activity: 1%
HepG2 [28]
  Activity: 49%
HepG2 [29]
  Activity: 50%
